Here are results for 43 molecules from patent publication US7662825B2, “N-pyrazinyl-phenylsulphonamides and their use in the treatment of chemokine mediated diseases” (AstraZeneca AB, priority 2002, dated 2010).

On to `COc1nc(C)cnc1NS(=O)(=O)c1ccccc1F` [Example 13, N-(3-Methoxy-5-methyl-2-pyrazinyl)-2-fluorobenzenesulphonamide], for which the melting point – broadly, the temperature of the solid-liquid transition – lay within 150 to 152 °C. For `Cc1cnc(NS(=O)(=O)c2cccc(Cl)c2Cl)c(OCc2ccco2)n1` [Example 20, 2,3-Dichloro-N-[3-(2-furanylmethoxy)-5-methyl-2-pyrazinyl]benzenesulphonamide], the melting point was 127 to 129 °C.

As for `Cc1cnc(NS(=O)(=O)c2cccc(Cl)c2Cl)c(OCc2cc(C)on2)n1` [Example 21, 2,3-Dichloro-N-[5-methyl-3-(5-methyl-3-isoxazolylmethoxy)-2-pyrazinyl]benzenesulphonamide], the melting point lay in the range of 155 to 156 °C. Turning to `Cc1cccc(COc2nc(C)cnc2NS(=O)(=O)c2cccc(Cl)c2Cl)n1` [Example 23, 2,3-Dichloro-N-[5-methyl-3-(6-methyl-2-pyridinylmethoxy)-2-pyrazinyl]benzenesulphonamide], the melting point lay within 164 to 165 °C. With `Cc1cnc(NS(=O)(=O)c2cccc(Cl)c2Cl)c(OCc2cccnc2)n1` [Example 24, 2,3-Dichloro-N-[5-methyl-3-(3-pyridinylmethoxy)-2-pyrazinyl]benzenesulphonamide] the figure was 160 to 161 °C; with `Cc1cnc(NS(=O)(=O)c2cccc(Cl)c2Cl)c(OCc2ccncc2)n1` [Example 25, 2,3-Dichloro-N-[5-methyl-3-(4-pyridinylmethoxy)-2-pyrazinyl]benzenesulphonamide], 183 to 184 °C; with `Cc1cnc(NS(=O)(=O)c2cccc(Cl)c2Cl)c(OCc2ncccc2C)n1` [Example 26, 2,3-Dichloro-N-[5-methyl-3-(3-methyl-2-pyridinylmethoxy)-2-pyrazinyl]benzenesulphonamide], 137 to 138 °C. As for `Cc1cnc(NS(=O)(=O)c2cccc(Cl)c2Cl)c(OCc2cccnn2)n1` [Example 27, 2,3-Dichloro-N-[5-methyl-3-(3-pyridazinylmethoxy)-2-pyrazinyl]benzenesulphonamide], the melting point was 119 to 124 °C.

Molecule `O=S(=O)(Nc1nccnc1OCc1ccccn1)c1cccc(Cl)c1Cl` [Example 28, 2,3-Dichloro-N-[3-(2-pyridinylmethoxy)-2-pyrazinyl]benzenesulphonamide] displayed a melting point of 167 to 168 °C. `O=S(=O)(Nc1nccnc1OCc1cccnc1)c1cccc(Cl)c1Cl` [Example 29, 2,3-Dichloro-N-[3-(3-pyridinylmethoxy)-2-pyrazinyl]benzenesulphonamide] gave a melting point of 138 to 139 °C. Consider `COc1nccnc1NS(=O)(=O)c1cccc(Cl)c1Cl` [Example 30, 2,3-Dichloro-N-(3-methoxy-2-pyrazinyl)benzenesulphonamide], for which the melting point lay in the range of 183 to 184 °C. In the case of `O=S(=O)(Nc1ncc(Br)nc1OCc1cnccn1)c1cccc(Cl)c1Cl` [Example 31, N-[5-Bromo-3-(2-pyrazinylmethoxy)-2-pyrazinyl]-2,3-dichlorobenzenesulphonamide], the melting point was in the range of 207 to 209 °C. `Cn1cc(COc2nc(Br)cnc2NS(=O)(=O)c2cccc(Cl)c2Cl)ccc1=O` [Example 32, N-[5-Bromo-3-(1-methyl-6-oxo-1,6-dihydro-3-pyridinylmethoxy)-2-pyrazinyl]-2,3-dichlorobenzenesulphonamide]: the melting point was 169 to 170 °C. In turn, `O=S(=O)(Nc1ncc(Br)nc1OCc1cccnn1)c1cccc(Cl)c1Cl` [Example 33] came in with a melting point of 115 to 120 °C. Regarding `O=S(=O)(Nc1ncc(Br)nc1OCc1cccnc1)c1cccc(Cl)c1Cl` [Example 34, N-[5-Bromo-3-(3-pyridinylmethoxy)-2-pyrazinyl]-2,3-dichlorobenzenesulphonamide], the melting point is 204 to 206 °C.

Regarding `O=S(=O)(Nc1ncc(Br)nc1OCc1cncnc1)c1cccc(Cl)c1Cl` [Example 35, N-[5-Bromo-3-(5-pyrimidinylmethoxy)-2-pyrazinyl]-2,3-dichlorobenzenesulphonamide], the melting point was in the range of 208 to 209 °C. With `O=S(=O)(Nc1ncc(Cl)nc1OCc1cccnc1)c1cccc(Cl)c1Cl` [Example 36, N-[5-Chloro-3-(3-pyridinylmethoxy)-2-pyrazinyl]-2,3-dichlorobenzenesulphonamide], the melting point lay within 200 to 204 °C.

`O=S(=O)(Nc1ncc(Cl)nc1OCc1cncnc1)c1cccc(Cl)c1Cl` [Example 37, N-[5-Chloro-3-(5-pyrimidinylmethoxy)-2-pyrazinyl]-2,3-dichlorobenzenesulphonamide]: the melting point fell in the range of 205 to 206 °C. Consider `COc1ncc(Cl)nc1NS(=O)(=O)c1ccccc1Cl` [Example 38, 2-Chloro-N-(6-chloro-3-methoxy-2-pyrazinyl)benezenesulphonamide], for which the melting point fell in the range of 172 to 173 °C. With `COc1ncc(Cl)nc1NS(=O)(=O)c1cccc(Cl)c1` [Example 39, 3-Chloro-N-(6-chloro-3-methoxy-2-pyrazinyl)benezenesulphonamide], the melting point is 126 to 127 °C.

In turn, `COc1ncc(Cl)nc1NS(=O)(=O)c1ccc(Cl)cc1` [Example 40, 4-Chloro-N-(6-chloro-3-methoxy-2-pyrazinyl)benezenesulphonamide] had a melting point of 174 to 175 °C. `COc1ncc(Cl)nc1NS(=O)(=O)c1ccc(Cl)cc1Cl` [Example 41, N-(6-Chloro-3-methoxy-2-pyrazinyl)-2,4-dichlorobenezenesulphonamide] displayed a melting point of 189 to 190 °C. In the case of `COc1ncc(Cl)nc1NS(=O)(=O)c1ccc(Cl)c(Cl)c1` [Example 42, N-(6-Chloro-3-methoxy-2-pyrazinyl)-3,4-dichlorobenezenesulphonamide], the melting point was 176 to 177 °C. Molecule `COc1nc(C)cnc1NS(=O)(=O)c1cccc(Cl)c1C` [Example 43, 3-Chloro-N-(3-methoxy-5-methyl-2-pyrazinyl)-2-methylbenezenesulphonamide] came in with a melting point of 133 to 135 °C. For the molecule `COc1nc(C)cnc1NS(=O)(=O)c1cccc(Cl)c1` [Example 45, 3-Chloro-N-(3-methoxy-5-methyl-2-pyrazinyl)benezenesulphonamide], the melting point lay in the range of 123 to 125 °C. `COc1nc(C)cnc1NS(=O)(=O)c1ccc(Cl)cc1` [Example 46, 4-Chloro-N-(3-methoxy-5-methyl-2-pyrazinyl)benezenesulphonamide]: the melting point is 155 to 156 °C. `COc1nc(C)cnc1NS(=O)(=O)c1ccc(Cl)cc1Cl` [Example 47, 2,4-Dichloro-N-(3-methoxy-5-methyl-2-pyrazinyl)benezenesulphonamide] came in with a melting point of 135 to 136 °C. On to `COc1nc(C)cnc1NS(=O)(=O)c1ccc(Cl)c(Cl)c1` [Example 48, 3,4-Dichloro-N-(3-methoxy-5-methyl-2-pyrazinyl)benezenesulphonamide], for which the melting point lay within 148 to 149 °C.

`COc1nc(Br)cnc1NS(=O)(=O)c1ccccc1OC(F)(F)F` [Example 49, N-(5-Bromo-3-methoxy-2-pyrazinyl)-2-trifluoromethoxybenezenesulphonamide] showed a melting point of 156 to 157 °C. The molecule `COc1nc(Cl)cnc1NS(=O)(=O)c1cccc(Cl)c1C` [Example 50, 3-Chloro-N-(5-chloro-3-methoxy-2-pyrazinyl)-2-methylbenzenesulphonamide] came in with a melting point of 150 to 152 °C.

In turn, `COc1nc(Cl)cnc1NS(=O)(=O)c1ccccc1Cl` [Example 51, 2-Chloro-N-(5-chloro-3-methoxy-2-pyrazinyl)benzenesulphonamide] displayed a melting point of 190 to 192 °C. Consider `COc1nc(Cl)cnc1NS(=O)(=O)c1cccc(Cl)c1` [Example 52, 3-Chloro-N-(5-chloro-3-methoxy-2-pyrazinyl)benzenesulphonamide], for which the melting point was 129 to 130 °C. `COc1nc(Cl)cnc1NS(=O)(=O)c1ccc(Cl)cc1` [Example 53, 4-Chloro-N-(5-chloro-3-methoxy-2-pyrazinyl)benzenesulphonamide] yielded a melting point of 179 to 180 °C. With `COc1nc(Cl)cnc1NS(=O)(=O)c1ccc(Cl)cc1Cl` [Example 54, N-(5-Chloro-3-methoxy-2-pyrazinyl)-2,4-dichlorobenzenesulphonamide] the figure was 170 to 171 °C. `COc1nc(N2CCOCC2)cnc1NS(=O)(=O)c1cccc(Cl)c1Cl` [Example 55, 2,3-Dichloro-N-[3-methoxy-5-(4-morpholinyl)-2-pyrazinyl]benzenesulphonamide] came in with a melting point of 167 to 168 °C. The value for `COc1cnc(NS(=O)(=O)c2cccc(Cl)c2Cl)c(OC)n1` [Example 56, 2,3-Dichloro-N-[3,5-dimethoxy-2-pyrazinyl]benzenesulphonamide] was 138 to 139 °C. The molecule `COc1nc(N2CCCC2)cnc1NS(=O)(=O)c1cccc(Cl)c1Cl` [Example 57] returned a melting point of 179 to 180 °C.

For the molecule `COc1nc(Cl)c(Cl)nc1NS(=O)(=O)c1cccc(Cl)c1C` [Example 58, 3-Chloro-N-(5,6-dichloro-3-methoxy-2-pyrazinyl)-2-methylbenzenesulphonamide], the melting point was 177 to 178 °C. The molecule `COc1nc(Cl)c(Cl)nc1NS(=O)(=O)c1cccc(Cl)c1Cl` [Example 59, 2,3-Dichloro-N-(5,6-dichloro-3-methoxy-2-pyrazinyl)benzenesulphonamide] registered a melting point of 172 to 173 °C. `COc1nc(Cl)c(Cl)nc1NS(=O)(=O)c1ccccc1Cl` [Example 60, 2-Chloro-N-(5,6-dichloro-3-methoxy-2-pyrazinyl)benzenesulphonamide] displayed a melting point of 217 to 218 °C.

With `COc1nc(Cl)c(Cl)nc1NS(=O)(=O)c1cccc(Cl)c1` [Example 61, 3-Chloro-N-(5,6-dichloro-3-methoxy-2-pyrazinyl)benzenesulphonamide], the melting point lay within 171 to 172 °C. `COc1nc(Cl)c(Cl)nc1NS(=O)(=O)c1ccc(Cl)cc1` [Example 62, 4-Chloro-N-(5,6-dichloro-3-methoxy-2-pyrazinyl)benzenesulphonamide] yielded a melting point of 186 to 187 °C. For `COc1nc(Cl)c(Cl)nc1NS(=O)(=O)c1ccc(Cl)cc1Cl` [Example 63, 2,4-Dichloro-N-(5,6-dichloro-3-methoxy-2-pyrazinyl)benzenesulphonamide], the melting point lay in the range of 171 to 172 °C.
